Experimental data reported in ChEMBL document CHEMBL1154057, “Synthesis and antibacterial activity of novel 15-membered macrolide derivatives: 4''-carbamate, 11,12-cyclic carbonate-4''-carbamate and 11,4''-di-O-arylcarbamoyl analogs of azithromycin” (2009).
Converted amounts (≈) assume the structure as drawn.

Key:
[1] = test system: Streptococcus pneumoniae; assay: Antibacterial activity against erythromycin-resistant Streptococcus pneumoniae AB11 encoded by erm and mef gene
[2] = test system: Streptococcus pneumoniae; assay: Antibacterial activity against erythromycin-resistant Streptococcus pneumoniae B1 encoded by erm gene
[3] = test system: Streptococcus pneumoniae; assay: Antibacterial activity against erythromycin-resistant Streptococcus pneumoniae A22072 encoded by mef gene
[4] = test system: Streptococcus pneumoniae; assay: Antibacterial activity against erythromycin-susceptible Streptococcus pneumoniae ATCC 49619

Structure (SMILES) | MIC [1] [mg/L] | MIC [2] [mg/L] | MIC [3] [mg/L] | MIC [4] [mg/L]
CC[C@H]1OC(=O)[C@H](C)[C@@H](O[C@H]2C[C@@](C)(OC)[C@@H](OC(=O)NCc3ccc(F)cc3)[C@H](C)O2)[C@H](C)[C@@H](O[C@@H]2O[C@H](C)C[C@H](N(C)C)[C@H]2O)[C@@](C)(O)C[C@@H](C)CN(C)[C@H](C)[C@H]2OC(=O)O[C@@]21C | 4 (≈ 4.32 µM) | 8 (≈ 8.64 µM) | 0.06 (≈ 0.0648 µM) | 0.06 (≈ 0.0648 µM)
CC[C@H]1OC(=O)[C@H](C)[C@@H](O[C@H]2C[C@@](C)(OC)[C@@H](OC(=O)NCc3ccc(F)cc3)[C@H](C)O2)[C@H](C)[C@@H](O[C@@H]2O[C@H](C)C[C@H](N(C)C)[C@H]2O)[C@@](C)(O)C[C@@H](C)CN(C)[C@H](C)[C@@H](OC(=O)NCCc2ccccc2Cl)[C@]1(C)O | 2 (≈ 1.85 µM) | 0.25 (≈ 0.231 µM) | 0.12 (≈ 0.111 µM) | < 0.03
CCCCCNC(=O)O[C@H]1[C@H](C)O[C@@H](O[C@H]2[C@H](C)[C@@H](O[C@@H]3O[C@H](C)C[C@H](N(C)C)[C@H]3O)[C@@](C)(O)C[C@@H](C)CN(C)[C@H](C)[C@H]3OC(=O)O[C@]3(C)[C@@H](CC)OC(=O)[C@@H]2C)C[C@@]1(C)OC | 16 (≈ 18 µM) | 16 (≈ 18 µM) | 8 (≈ 9.01 µM) | 0.06 (≈ 0.0676 µM)
CC[C@H]1OC(=O)[C@H](C)[C@@H](O[C@H]2C[C@@](C)(OC)[C@@H](OC(=O)NCCc3ccc(O)cc3)[C@H](C)O2)[C@H](C)[C@@H](O[C@@H]2O[C@H](C)C[C@H](N(C)C)[C@H]2O)[C@@](C)(O)C[C@@H](C)CN(C)[C@H](C)[C@H]2OC(=O)O[C@@]21C | 4 (≈ 4.26 µM) | 8 (≈ 8.53 µM) | 1 (≈ 1.07 µM) | < 0.03
CCCNC(=O)O[C@H]1[C@H](C)O[C@@H](O[C@H]2[C@H](C)[C@@H](O[C@@H]3O[C@H](C)C[C@H](N(C)C)[C@H]3O)[C@@](C)(O)C[C@@H](C)CN(C)[C@H](C)[C@H]3OC(=O)O[C@]3(C)[C@@H](CC)OC(=O)[C@@H]2C)C[C@@]1(C)OC | 16 (≈ 18.6 µM) | 16 (≈ 18.6 µM) | 0.12 (≈ 0.14 µM) | 0.06 (≈ 0.0698 µM)
CC[C@H]1OC(=O)[C@H](C)[C@@H](O[C@H]2C[C@@](C)(OC)[C@@H](OC(=O)NCCc3ccc4c(c3)OCO4)[C@H](C)O2)[C@H](C)[C@@H](O[C@@H]2O[C@H](C)C[C@H](N(C)C)[C@H]2O)[C@@](C)(O)C[C@@H](C)CN(C)[C@H](C)[C@@H](O)[C@]1(C)O | 8 (≈ 8.51 µM) | 8 (≈ 8.51 µM) | 0.5 (≈ 0.532 µM) | < 0.03
CCCCCNC(=O)O[C@@H]1[C@@H](C)N(C)C[C@H](C)C[C@](C)(O)[C@H](O[C@@H]2O[C@H](C)C[C@H](N(C)C)[C@H]2O)[C@@H](C)[C@H](O[C@H]2C[C@@](C)(OC)[C@@H](OC(=O)NCCc3ccccc3Cl)[C@H](C)O2)[C@@H](C)C(=O)O[C@H](CC)[C@@]1(C)O | 16 (≈ 15.3 µM) | 0.5 (≈ 0.479 µM) | 0.5 (≈ 0.479 µM) | < 0.03
CC[C@H]1OC(=O)[C@H](C)[C@@H](O[C@H]2C[C@@](C)(OC)[C@@H](OC(=O)NC(C)C)[C@H](C)O2)[C@H](C)[C@@H](O[C@@H]2O[C@H](C)C[C@H](N(C)C)[C@H]2O)[C@@](C)(O)C[C@@H](C)CN(C)[C@H](C)[C@H]2OC(=O)O[C@@]21C | 128 (≈ 149 µM) | 16 (≈ 18.6 µM) | 8 (≈ 9.3 µM) | 0.12 (≈ 0.14 µM)
CC[C@H]1OC(=O)[C@H](C)[C@@H](O[C@H]2C[C@@](C)(OC)[C@@H](OC(=O)NCCc3ccccc3)[C@H](C)O2)[C@H](C)[C@@H](O[C@@H]2O[C@H](C)C[C@H](N(C)C)[C@H]2O)[C@@](C)(O)C[C@@H](C)CN(C)[C@H](C)[C@H]2OC(=O)O[C@@]21C | 2 (≈ 2.17 µM) | 8 (≈ 8.68 µM) | 0.06 (≈ 0.0651 µM) | 0.06 (≈ 0.0651 µM)
CC[C@H]1OC(=O)[C@H](C)[C@@H](O[C@H]2C[C@@](C)(OC)[C@@H](OC(=O)NCCc3ccc(O)cc3)[C@H](C)O2)[C@H](C)[C@@H](O[C@@H]2O[C@H](C)C[C@H](N(C)C)[C@H]2O)[C@@](C)(O)C[C@@H](C)CN(C)[C@H](C)[C@@H](O)[C@]1(C)O | 2 (≈ 2.19 µM) | 4 (≈ 4.39 µM) | 0.5 (≈ 0.548 µM) | < 0.03
CC[C@H]1OC(=O)[C@H](C)[C@@H](O[C@H]2C[C@@](C)(OC)[C@@H](OC(=O)NCCc3ccc(O)cc3)[C@H](C)O2)[C@H](C)[C@@H](O[C@@H]2O[C@H](C)C[C@H](N(C)C)[C@H]2O)[C@@](C)(O)C[C@@H](C)CN(C)[C@H](C)[C@@H](OC(=O)NCCc2ccccc2Cl)[C@]1(C)O | 16 (≈ 14.6 µM) | 0.25 (≈ 0.229 µM) | 0.25 (≈ 0.229 µM) | < 0.03
CC[C@H]1OC(=O)[C@H](C)[C@@H](O[C@H]2C[C@@](C)(OC)[C@@H](OC(=O)NC3CCCCC3)[C@H](C)O2)[C@H](C)[C@@H](O[C@@H]2O[C@H](C)C[C@H](N(C)C)[C@H]2O)[C@@](C)(O)C[C@@H](C)CN(C)[C@H](C)[C@H]2OC(=O)O[C@@]21C | 32 (≈ 35.5 µM) | 16 (≈ 17.8 µM) | 2 (≈ 2.22 µM) | 0.06 (≈ 0.0667 µM)
C=CCNC(=O)O[C@H]1[C@H](C)O[C@@H](O[C@H]2[C@H](C)[C@@H](O[C@@H]3O[C@H](C)C[C@H](N(C)C)[C@H]3O)[C@@](C)(O)C[C@@H](C)CN(C)[C@H](C)[C@@H](O)[C@](C)(O)[C@@H](CC)OC(=O)[C@@H]2C)C[C@@]1(C)OC | 32 (≈ 38.5 µM) | 16 (≈ 19.2 µM) | 1 (≈ 1.2 µM) | < 0.03
CCCCNC(=O)O[C@H]1[C@H](C)O[C@@H](O[C@H]2[C@H](C)[C@@H](O[C@@H]3O[C@H](C)C[C@H](N(C)C)[C@H]3O)[C@@](C)(O)C[C@@H](C)CN(C)[C@H](C)[C@@H](O)[C@](C)(O)[C@@H](CC)OC(=O)[C@@H]2C)C[C@@]1(C)OC | 128 (≈ 151 µM) | 8 (≈ 9.43 µM) | 1 (≈ 1.18 µM) | < 0.03
CC[C@H]1OC(=O)[C@H](C)[C@@H](O[C@H]2C[C@@](C)(OC)[C@@H](OC(=O)NCCc3ccc(O)cc3)[C@H](C)O2)[C@H](C)[C@@H](O[C@@H]2O[C@H](C)C[C@H](N(C)C)[C@H]2O)[C@@](C)(O)C[C@@H](C)CN(C)[C@H](C)[C@@H](OC(=O)NCc2ccccc2)[C@]1(C)O | 128 (≈ 122 µM) | 0.25 (≈ 0.239 µM) | 0.12 (≈ 0.115 µM) | < 0.03
CC[C@H]1OC(=O)[C@H](C)[C@@H](O[C@H]2C[C@@](C)(OC)[C@@H](OC(=O)NCc3ccccc3)[C@H](C)O2)[C@H](C)[C@@H](O[C@@H]2O[C@H](C)C[C@H](N(C)C)[C@H]2O)[C@@](C)(O)C[C@@H](C)CN(C)[C@H](C)[C@H]2OC(=O)O[C@@]21C | 8 (≈ 8.81 µM) | 8 (≈ 8.81 µM) | 0.12 (≈ 0.132 µM) | < 0.03
CC[C@H]1OC(=O)[C@H](C)[C@@H](O[C@H]2C[C@@](C)(OC)[C@@H](OC(=O)NCCc3ccccc3Cl)[C@H](C)O2)[C@H](C)[C@@H](O[C@@H]2O[C@H](C)C[C@H](N(C)C)[C@H]2O)[C@@](C)(O)C[C@@H](C)CN(C)[C@H](C)[C@H]2OC(=O)O[C@@]21C | 2 (≈ 2.09 µM) | 8 (≈ 8.36 µM) | 0.25 (≈ 0.261 µM) | 0.06 (≈ 0.0627 µM)
CC[C@H]1OC(=O)[C@H](C)[C@@H](O[C@H]2C[C@@](C)(OC)[C@@H](OC(=O)NCc3ccc(F)cc3)[C@H](C)O2)[C@H](C)[C@@H](O[C@@H]2O[C@H](C)C[C@H](N(C)C)[C@H]2O)[C@@](C)(O)C[C@@H](C)CN(C)[C@H](C)[C@@H](O)[C@]1(C)O | 16 (≈ 17.8 µM) | 4 (≈ 4.44 µM) | 0.25 (≈ 0.278 µM) | < 0.03
CC[C@H]1OC(=O)[C@H](C)[C@@H](O[C@H]2C[C@@](C)(OC)[C@@H](O)[C@H](C)O2)[C@H](C)[C@@H](O[C@@H]2O[C@H](C)C[C@H](N(C)C)[C@H]2O)[C@](C)(OC)C[C@@H](C)C(=O)[C@H](C)[C@@H](O)[C@]1(C)O [CLARITHROMYCIN] | 128 (≈ 171 µM) | 64 (≈ 85.6 µM) | 4 (≈ 5.35 µM) | < 0.03
CCCCCNC(=O)O[C@@H]1[C@@H](C)N(C)C[C@H](C)C[C@](C)(O)[C@H](O[C@@H]2O[C@H](C)C[C@H](N(C)C)[C@H]2O)[C@@H](C)[C@H](O[C@H]2C[C@@](C)(OC)[C@@H](OC(=O)NCc3ccc(OC)cc3)[C@H](C)O2)[C@@H](C)C(=O)O[C@H](CC)[C@@]1(C)O | 32 (≈ 31.2 µM) | 0.5 (≈ 0.488 µM) | 1 (≈ 0.975 µM) | 0.06 (≈ 0.0585 µM)
C=CCNC(=O)O[C@H]1[C@H](C)O[C@@H](O[C@H]2[C@H](C)[C@@H](O[C@@H]3O[C@H](C)C[C@H](N(C)C)[C@H]3O)[C@@](C)(O)C[C@@H](C)CN(C)[C@H](C)[C@H]3OC(=O)O[C@]3(C)[C@@H](CC)OC(=O)[C@@H]2C)C[C@@]1(C)OC | 128 (≈ 149 µM) | 64 (≈ 74.6 µM) | 1 (≈ 1.17 µM) | 0.12 (≈ 0.14 µM)
CCCCNC(=O)O[C@@H]1[C@@H](C)N(C)C[C@H](C)C[C@](C)(O)[C@H](O[C@@H]2O[C@H](C)C[C@H](N(C)C)[C@H]2O)[C@@H](C)[C@H](O[C@H]2C[C@@](C)(OC)[C@@H](OC(=O)NCCc3ccc(O)cc3)[C@H](C)O2)[C@@H](C)C(=O)O[C@H](CC)[C@@]1(C)O | 128 (≈ 127 µM) | 0.25 (≈ 0.247 µM) | 1 (≈ 0.989 µM) | < 0.03
